Experimental data as given in patent US8383629B2, “Inhibitors of 11β-hydroxysteroid dehydrogenase type 1” (Vitae Pharmaceuticals, Inc., priority 2008, dated 2013).

Target: T1, human 11β-HSD1 (Homo sapiens, UniProt P28845)
T1 construct: expressed in transfected cells; host or cells: CHO cells (microsomes)
Assay: Inhibition of microsomal preparation of 11β-HSD1 (SPA, Biological Test Example 1)
Assay type: biochemical
Details: for inhibition at 0.111 µM: 111 nM; for IC50: microsomes from CHO cells overexpressing human 11β-HSD1, read-out: IC50 Range
Method in brief: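 Microsomes from CHO cells overexpressing human 11β-HSD1 reduced [3H]cortisone (160 nM in substrate solution, with 2 mM NADPH, HEPES pH 7.4) for 90 min at rt after a 10 min compound preincubation. Compounds were run as 8-point half-log DMSO dilutions from 0.1 mM. 18β-glycyrrhetinic acid stopped the reaction, and anti-cortisol antibody SPA beads read [3H]cortisol.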

T1 sequence (P28845 whole entry): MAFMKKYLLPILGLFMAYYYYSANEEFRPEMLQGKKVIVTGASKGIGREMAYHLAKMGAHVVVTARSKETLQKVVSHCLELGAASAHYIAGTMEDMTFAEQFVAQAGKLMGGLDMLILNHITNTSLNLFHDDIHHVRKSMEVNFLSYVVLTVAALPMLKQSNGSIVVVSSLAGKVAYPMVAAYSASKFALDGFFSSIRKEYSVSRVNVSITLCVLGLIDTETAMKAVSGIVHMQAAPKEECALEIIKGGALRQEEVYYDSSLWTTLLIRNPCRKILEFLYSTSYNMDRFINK

Row | Structure (SMILES) | inhibition at 0.111 µM | IC50
1 | O=C1NC2(CCN(C(=O)Cc3ccccc3C(F)(F)F)CC2)c2c(Cl)cccc21 [EXAMPLE 45, 7-chloro-1′-(2-(2-(trifluoromethyl)phenyl)acetyl)spiro[isoindoline-1,4′-piperidin]-3-one] | 43.2% | 100 to 1000 nM
2 | CS(=O)(=O)c1ccccc1CNC(=O)N1CCC2(CC1)CC(CC(=O)O)c1cccc(Br)c12 (stereo not drawn) [EXAMPLE 97, 2-(7-bromo-1′-(2-(methylsulfonyl)benzylcarbamoyl)-2,3-dihydrospiro[indene-1,4′-piperidine]-3-yl)acetic acid] | 5.6% | 100 to 1000 nM
3 | CC(C)(C)OC(=O)N1Cc2ccccc2C2(CCN(C(=O)/C=C/c3ccccc3C(F)(F)F)CC2)C1 [EXAMPLE 20, (E)-tert-butyl 1′-(3-(2-(trifluoromethyl)phenyl)acryloyl)-1H-spiro[isoquinoline-4,4′-piperidine]-2(3H)-carboxylate] | 29% | < 100 nM
4 | CCOC(=O)CC1CC2(CCN(C(=O)NCc3ccccc3C)CC2)c2c(Br)cccc21 (stereo not drawn) [EXAMPLE 86, Ethyl 2-(7-bromo-1′(2-methylbenzylcarbamoyl)-2,3-dihydrospiro[indene-1,4′-piperidine]-3-yl)acetate] | 58.7% | < 100 nM
5 | CN1CCN(C(=O)c2ccc3c(c2)C2(CCN(C(=O)/C=C/c4ccccc4C(F)(F)F)CC2)C(=O)N3C)CC1 [EXAMPLE 37, (E)-1-methyl-5-(4-methylpiperazine-1-carbonyl)-1′-(3-(2-(trifluoromethyl)phenyl)acryloyl)spiro[indoline-3,4′-piperidin]-2-one] | 7.1% | 100 to 1000 nM
6 | CCOC(=O)CC1CC2(CCN(C(=O)NCc3ccccc3OCC)CC2)c2c(Br)cccc21 (stereo not drawn) [EXAMPLE 82, Ethyl 2-(7-bromo-1′-(2-ethoxybenzylcarbamoyl)-2,3-dihydrospiro[indene-1,4′-piperidine]-3-yl)acetate] | 28.6% | 100 to 1000 nM
7 | CNC(=O)N1Cc2ccccc2C2(CCN(C(=O)CCc3ccccc3C(F)(F)F)CC2)C1 [EXAMPLE 68, N-methyl-1′-(3-(2-(trifluoromethyl)phenyl)propanoyl)-1H-spiro[isoquinoline-4,4′-piperidine]-2(3H)-carboxamide] | 81.5% | < 100 nM
8 | O=C1CC2(CCN(C(=O)COc3ccccc3C(F)(F)F)CC2)c2c(Br)cccc21 [EXAMPLE 106, 7-bromo-1′-(2-(2-(trifluoromethyl)phenoxy)acetyl)spiro[indene-1,4′-piperidin]-3(2H)-one] |  | < 100 nM
9 | O=C(/C=C/c1ccccc1C(F)(F)F)N1CCC2(CC1)CNCc1ccccc12 [EXAMPLE 21, (E)-1-(2,3-dihydro-1H-spiro[isoquinoline-4,4′-piperidine]-1′-yl)-3-(2-(trifluoromethyl)phenyl)prop-2-en-1-one] | 87.4% | < 100 nM
10 | NC1CC2(CCN(C(=O)/C=C/c3ccccc3C(F)(F)F)CC2)c2c(Br)cccc21 (racemic) [EXAMPLE 18, (±)-(E)-1-(3-amino-7-bromo-2,3-dihydrospiro[indene-1,4′-piperidine]-1′-yl)-3-(2-(trifluoromethyl)phenyl)prop-2-en-1-one] | 93.3% | < 100 nM

Continued, values first:

Row | inhibition at 0.111 µM | IC50 | Structure (SMILES)
11 | 59.2% | < 100 nM | CCOC(=O)CC1CC2(CCN(C(=O)N(CC)Cc3c(F)cccc3Cl)CC2)c2c(Br)cccc21 (stereo not drawn) [EXAMPLE 81]
12 | 42.6% | 100 to 1000 nM | CCOC(=O)CC1CC2(CCN(C(=O)N(C)Cc3ccccc3C(F)(F)F)CC2)c2c(Br)cccc21 (stereo not drawn) [EXAMPLE 101, Ethyl 2-(7-bromo-1′-(methyl(2-(trifluoromethyl)benzyl)carbamoyl)-2,3-dihydrospiro[indene-1,4′-piperidine]-3-yl)acetate]
13 | 37.6% | 100 to 1000 nM | CC(C)(C)OC(=O)N1Cc2ccccc2C2(CCN(C(=O)CCc3ccccc3C(F)(F)F)CC2)C1 [EXAMPLE 57, tert-butyl 1′-(3-(2-(trifluoromethyl)phenyl)propanoyl)-1H-spiro[isoquinoline-4,4′-piperidine]-2(3H)-carboxylate]
14 | 83.4% | < 100 nM | COC(=O)c1ccc2c(c1)C1(CCN(C(=O)/C=C/c3ccccc3C(F)(F)F)CC1)C(=O)N2C [EXAMPLE 32, (E)-methyl 1-methyl-2-oxo-1′-(3-(2-(trifluoromethyl)phenyl)acryloyl)spiro[indoline-3,4′-piperidine]-5-carboxylate]
